# Test results: US10053455B2, “Diazaspiroalkaneone-substituted oxazole derivatives as spleen tyrosine kinase inhibitors” (AB SCIENCE, priority 2014, dated 2018)
# Where two headings read alike, the source gives them in different places.
# Key:
# Jak2 = Jak2 (Homo sapiens (Human), UniProt O60674); assay: HTRF kinase assay, Jak2; format: biochemical; settings: enzymatic determination
# Experimental: Most of the kinases tested in this study were cloned, expressed and purified in the facilities of the inventors. They were expressed either as N-terminus hexahistidine-, hexahistidine-asparagine- or GST-tagged enzymes in a baculovirus or in a Colibacille expression system. Remaining enzymes (JAKs) were purchased from Millipore or Proqinase. For each enzyme, steady state kinetic parameters were determined and validated with known inhibitors.
# The analysis of the effect of compounds on kinase activity was assessed with the HTRF® KinEASE assay (Cisbio International), an immuno-assay based on the quantification of the level of phosphorylation of a biotinylated peptide substrate using anti-phospho-specific antibody labeled with Europium (Eu^3+) cryptate. This assay comprises two steps: —an enzymatic step, during which the peptide substrate, the kinase, ATP, Mg^2+ and/or Mn^2+ are incubated with varying concentration of drug (from 0 to 10 μM); —a detection step, at the end of the reaction (stopped by addition of EDTA which chelates Mg^2+), the antibody anti-phospho peptide-Eu^3+ (emission 620 nm) and streptavidin XL-665 (emission 665 nm) are added to the reaction mix. […] Results are expressed in delta fluorescence (DF) unit defined as follow DF %=[(ratio−ratio blank)/(ratio blank)]*100, where ratio=(665 nm/620 nm)*10^4. […]
# Myeloperoxidase (MPO) = assay: Myeloperoxidase activity in K/BxN arthritis model; format: in vivo, C57Bl/6 mice
# Experimental: K/B×N serum pools were prepared from arthritic mice at 8 weeks of age. The mice were pre-treated with SYK inhibitors by two per os administration for two days before induction of arthritis. Arthritis was induced in the C57Bl/6 mice (8 weeks of age) by intraperitoneal injection (7.5 μl serum per g weight) at days 0 and 2.
# The treatment with SYK inhibitors was continued for 13 days. The control mice were injected with solvent before the induction of arthritis and during the course of the disease. The compounds were dissolved in a solution containing 10% of Tween 80 and 10% 1-2 propandiol. It was prepared before administration.
# MPO activity was determined following published protocol (American Journal of Pathology, (2000), 156 (6):2169-2177). Briefly, tissue samples were weighed and suspended in 50 mmol/L potassium phosphate buffer (pH 6.0) containing 5 mg/ml hexadecyltrimethylammonium bromide (Sigma Chemical Co.) at a ratio of 50 mg tissue to 1 ml of buffer. […] Using a microtiter plate scanner, 200 μl of the reaction mixture (containing 16.7 mg of o-dianisidine (Sigma Chemical Co.), […] of distilled H2O, […] of potassium-phosphate buffer, and 50 μl of 1% H2O2) was added to each well containing 7 μl of sample in a standard 96-well plate and three absorbance readings at 5 min intervals at 450 nm were recorded.
# human cardiomyocytes = assay: Intracellular ROS in human cardiomyocytes (CM-H2DCFDA); format: cell-based; settings: 10 μM, 8 hours
# Experimental: 2×10^3 human cardiomyocytes (Promocell C-12810) or 4×10^4 rat neonatal cardiac myocytes (R-CM-561 Lonza) were seeded per well of a 96-well plate (black wall for fluorimetry usage (655090 Greiner Bio one)) 24 hours before drug treatment. Treatment was initiated by addition of a drug solution for a 10 μM final concentration. Doxorubicin was used at 5 μM as positive control for the induction of ROS. After 8 hours treatment with drugs, cells were loaded with 10 μM of CM-H2DCFDA (C6827 Invitrogen) for 1 hour, followed by 2 washes in PBS. CM-H2DCFDA is a membrane permeable reagent that can be enzymatically converted to dichlorodihydrofluorescein (DCF) in the presence of ROS. Fluorescent DCF was detected using a fluorescence spectrophotometer (BMG Labtech) with excitation of 485 nm and emission of 560 nm. The results were expressed as a relative percent of DCF-fluorescence in control cells.
# Monitoring drug-induced increase in the production of reactive oxygen species (ROS) in cardiomyocyte may be important to predict the cardiotoxic side effects of a drug (Table 11). The production of ROS in human and rat cardiomyocytes was studied following 8 hours drug treatment at concentration of 10 μM. The results were expressed as a percent relative to the production of ROS induced by the cardiotoxic chemotherapeutic agent doxorubicin (100%).
# [1] = Early bioavailability determination (plasma PK); format: in vivo, Sprague Dawley rats; settings: rat; for AUC: read-out: AUC24
# Experimental: Early screen was conducted to estimate plasma concentrations of test compounds obtained after oral or intravenous administration to Sprague Dawley rats. DMSO was used as vehicle for oral and intravenous administration. In short, 4 male Sprague Dawley rats around 5 weeks old were used. Drugs were administered PO (10 mg/kg) or IV (2 mg/kg). Blood samples were collected at defined time schedule and analysed using LC-MS/MS determination for PK parameters calculations.
# [2] = male, Sprague Dawley, plasma, IV, 2 mg/kg, mean
# [3] = male, Sprague Dawley, plasma, PO, 10 mg/kg, mean
# Jak2, sequence (O60674 whole entry): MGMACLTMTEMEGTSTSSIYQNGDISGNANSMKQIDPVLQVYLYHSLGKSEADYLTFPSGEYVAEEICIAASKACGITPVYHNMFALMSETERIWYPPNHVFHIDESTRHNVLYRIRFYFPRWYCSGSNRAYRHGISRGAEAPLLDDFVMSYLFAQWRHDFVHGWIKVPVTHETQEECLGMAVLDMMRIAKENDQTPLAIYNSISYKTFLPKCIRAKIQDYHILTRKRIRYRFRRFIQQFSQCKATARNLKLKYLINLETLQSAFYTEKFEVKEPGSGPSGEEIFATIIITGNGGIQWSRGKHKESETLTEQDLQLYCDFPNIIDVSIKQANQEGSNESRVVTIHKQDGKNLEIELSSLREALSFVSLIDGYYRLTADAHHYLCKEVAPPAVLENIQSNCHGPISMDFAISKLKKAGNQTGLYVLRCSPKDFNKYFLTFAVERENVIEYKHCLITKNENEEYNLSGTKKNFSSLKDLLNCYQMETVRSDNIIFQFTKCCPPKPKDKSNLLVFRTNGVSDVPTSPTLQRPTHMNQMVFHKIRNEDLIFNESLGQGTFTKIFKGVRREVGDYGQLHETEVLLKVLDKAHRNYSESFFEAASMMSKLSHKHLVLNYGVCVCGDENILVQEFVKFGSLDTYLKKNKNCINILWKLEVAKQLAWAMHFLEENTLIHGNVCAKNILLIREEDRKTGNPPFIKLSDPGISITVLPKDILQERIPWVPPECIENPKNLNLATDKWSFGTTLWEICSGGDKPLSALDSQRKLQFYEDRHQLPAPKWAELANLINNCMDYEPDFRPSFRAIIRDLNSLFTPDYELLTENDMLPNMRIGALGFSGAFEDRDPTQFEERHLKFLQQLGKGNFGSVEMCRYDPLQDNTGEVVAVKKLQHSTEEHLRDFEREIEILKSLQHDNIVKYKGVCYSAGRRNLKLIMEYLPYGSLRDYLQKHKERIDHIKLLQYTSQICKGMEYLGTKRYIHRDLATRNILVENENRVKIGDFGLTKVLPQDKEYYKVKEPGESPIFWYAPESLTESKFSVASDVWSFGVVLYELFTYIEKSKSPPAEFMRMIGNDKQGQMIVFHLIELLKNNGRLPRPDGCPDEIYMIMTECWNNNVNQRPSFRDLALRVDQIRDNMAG
compound,measurement,setting,value
"Cc1ccnc(Nc2cccc(-c3cnc(N4CCNC(=O)C45CC5)o3)c2)n1 [Compound 001, 4-{5-[3-(4-Methyl-pyrimidin-2-ylamino)-phenyl]-oxazol-2-yl}-4,7-diaza-spiro[2.5]octan-8-one]",IC50,Jak2; read-out: Jak2 IC50,900 nM
same,IC50,Jak2; read-out: Kinase activity profile IC50 JAK 2,920 nM
same,MPO activity,Myeloperoxidase (MPO); KBxN + 15 mg/kg b.i.d.,1.031 ± 0.24 U/ml
same,MPO activity,Myeloperoxidase (MPO); KBxN + 50 mg/kg b.i.d.,0.348 ± 0.08 U/ml
same,"ROS production, activity relative to doxorubicine (100%), Hu-CM",human cardiomyocytes,0%
same,Cl,"[1]; PO, 10 mg/kg, mean",17 mL/min/kg
same,Vd,"[1]; PO, 10 mg/kg, mean",2.9 L/kg
same,Cmax,[1]; [2],869 ng/mL
same,Tmax,[1]; [2],0.083 h
same,clearance,[1]; [2],15 mL/min/kg
same,half-life,[1]; [2],0.6 h
same,AUC,[1]; [2],1060 ng·h/mL
same,Vd,"[1]; male, Sprague Dawley, plasma, IV, 2 mg/kg, mean, read-out: Vd",0.9 L/kg
same,bioavailability,"[1]; male, Sprague Dawley, plasma, PO 10 mg/kg vs IV 2 mg/kg, read-out: F24 (absolute bioavailability)",97.5%
same,Cmax,[1]; [3],122 ng/mL
same,Tmax,[1]; [3],3 h
same,half-life,[1]; [3],2.1 h
same,AUC,[1]; [3],1030 ng·h/mL
